Experimental findings from patent US8652505B2, “Coating for medical implants” (Southwest Research Institute, priority 2010, dated 2014) are described below.

The assay has as its system methicillin resistant Staphylococcus aureus (MRSA) bacteria (strain: ATCC#33591). Kind of assay: Bacteria inhibition test on Mueller-Hinton agar (zone of inhibition / MIC). The format is cell-based. As to the method: Bacteria inhibition tests were performed on Agar according to the standard method by using methicillin resistant Staphylococcus aureus (MRSA) bacteria (strain: ATCC#33591) in order to determine if the released vancomycin was active and unaffected by the coating and polymerization procedures described herein. The bacteria suspensions were cultured onto separate Mueller-Hinton agar plates at a concentration of 1−2×10^8 CFU/mL (CFU=colony forming unites) and incubated at 37° C. Released vancomycin, free vancomycin, and a standard vancomycin disk (loaded with 30 μg of vancomycin) were compared. After 24 hrs, the zone of inhibition was measured. To measure the sensitivity or the minimum inhibition concentration (MIC), different concentrations of vancomycin were loaded onto cellulose discs (40, 20, 10, 5, 2.5, and 1.25 μg per disc, N=3) and the zone of inhibition was measured.

For the compound `CN[C@H](CC(C)C)C(=O)N[C@H]1C(=O)N[C@@H](CC(N)=O)C(=O)N[C@H]2C(=O)N[C@H]3C(=O)N[C@H](C(=O)N[C@H](C(=O)O)c4cc(O)cc(O)c4-c4cc3ccc4O)[C@H](O)c3ccc(c(Cl)c3)Oc3cc2cc(c3O[C@@H]2O[C@H](CO)[C@@H](O)[C@H](O)[C@H]2O[C@H]2C[C@](C)(N)[C@H](O)[C@H](C)O2)Oc2ccc(cc2Cl)[C@H]1O` [vancomycin], under “vancomycin loaded on cellulose discs, against S. Aureus, FIG. 10”, the MIC lay in the range of 0.5 to 1 µg. As to `CN[C@H](CC(C)C)C(=O)N[C@H]1C(=O)N[C@@H](CC(N)=O)C(=O)N[C@H]2C(=O)N[C@H]3C(=O)N[C@H](C(=O)N[C@H](C(=O)O)c4cc(O)cc(O)c4-c4cc3ccc4O)[C@H](O)c3ccc(c(Cl)c3)Oc3cc2cc(c3O[C@@H]2O[C@H](CO)[C@@H](O)[C@H](O)[C@H]2O[C@H]2C[C@](C)(N)[C@H](O)[C@H](C)O2)Oc2ccc(cc2Cl)[C@H]1O` [released drug, vancomycin], the “activity of released drug in bacteria inhibition test” value (zone of inhibition after 24 hrs, 37° C., compared with free vancomycin and standard 30 μg disk) is “same activity as the free drug and standard drug”.
